Data reported in the CheMixHub ionic liquid set.

Assay: xn = mol fraction of the nth substance listed

[Cl-].c1ccc(C[P+](c2ccccc2)(c2ccccc2)c2ccccc2)cc1 + OCCOCCO
101 kPa, x2 = 0.875
Settings	electrical conductivity [S/m]	viscosity [mPa·s]
313.15 K	0.0935	64.2
353.15 K	0.212	17.1

CCCCCCCCCCCCCC[P+](CCCCCC)(CCCCCC)CCCCCC.[c-]1c[nH]nn1 + CCCC[n+]1ccn(C)c1.O=S(=O)([N-]S(=O)(=O)C(F)(F)F)C(F)(F)F
100 kPa
Settings	viscosity [mPa·s]
278.15 K, x2 = 0.2	2422
283.15 K, x2 = 0.1	1490
283.15 K, x2 = 0.722	481
293.15 K, x2 = 0.301	663
298.15 K, x2 = 0.1	486
298.15 K, x2 = 0.388	428
298.15 K, x2 = 0.9	77
303.15 K, x2 = 0.1	353
303.15 K, x2 = 0.301	339
308.15 K, x2 = 0.2	273
313.15 K, x2 = 0.2	205
313.15 K, x2 = 0.388	174
318.15 K, x2 = 0.2	158
318.15 K, x2 = 0.301	147
318.15 K, x2 = 0.8	50
323.15 K, x2 = 0.301	115

CCC(=O)[O-].C[N+](C)(C)CCO + CCCO + O
100 kPa, x1 = 0.00408, x2 = 0.5431
Settings	viscosity [mPa·s]
288.15 K	3.537
298.15 K	2.571
308.15 K	1.931

COS(=O)(=O)[O-].Cn1cc[n+](C)c1 + COCCO
viscosity [mPa·s], 101 kPa
Settings	x1 = 0.0007603	x1 = 0.001899	x1 = 0.003034	x1 = 0.004168	x1 = 0.005298	x1 = 0.006426
293.15 K	2.01	2.03	2.05	2.07	2.09	2.11
303.15 K	1.4	1.42	1.44	1.46	1.48	1.5
313.15 K	0.97	0.99	1.01	1.03	1.05	1.07

CCCC[N+](CCCC)(CCCC)CCCC.[Cl-] + O=C(O)[C@@H]1CCCN1
100 kPa
Settings	electrical conductivity, 313.15 K [S/m]	electrical conductivity, 323.15 K [S/m]	electrical conductivity, 333.15 K [S/m]	electrical conductivity, 343.15 K [S/m]	electrical conductivity, 353.15 K [S/m]	viscosity, 313.15 K [mPa·s]	viscosity, 323.15 K [mPa·s]	viscosity, 333.15 K [mPa·s]	viscosity, 343.15 K [mPa·s]	viscosity, 353.15 K [mPa·s]
x1 = 0.875	0.0343	0.0411	0.065	0.0965	0.127	389	172	97.5	54.2	32.1
x1 = 0.8889	0.0137	0.0249	0.0423	0.0735	0.108	901	306	171	85	53.8
x1 = 0.9	0.0446	0.0612	0.0869	0.11	0.142	1051	534	233	131	77.3

CCCC[n+]1ccn(C)c1.[Br-] + N[C@@H](CO)C(=O)O + O
viscosity [mPa·s], 101.3 kPa
Settings	293.15 K	298.15 K	303.15 K	308.15 K	313.15 K
x2 = 0, x1 = 0.0007203	–	–	–	–	0.673
x2 = 0.0003632, x1 = 0.00072	1.028	0.917	0.824	0.747	0.681
x2 = 0.0003661, x1 = 0.001439	1.051	0.94	0.847	0.77	0.704
x2 = 0.0007261, x1 = 0.0007198	1.033	0.922	0.829	0.751	0.684
x2 = 0.0007318, x1 = 0.001438	1.056	0.945	0.852	0.773	0.707
x2 = 0.001089, x1 = 0.0007195	1.037	0.927	0.833	0.755	0.688
x2 = 0.001097, x1 = 0.001438	1.061	0.95	0.856	0.778	0.711
x2 = 0.001451, x1 = 0.0007192	1.043	0.931	0.838	0.759	0.693
x2 = 0.001463, x1 = 0.001437	1.067	0.954	0.861	0.782	0.716
x2 = 0.001808, x1 = 0.001437	1.072	0.959	0.865	0.787	0.72
x2 = 0.001813, x1 = 0.000719	1.047	0.936	0.842	0.764	0.697
x2 = 0.002175, x1 = 0.0007187	1.053	0.941	0.847	0.768	0.702
x2 = 0.002192, x1 = 0.001436	1.076	0.963	0.87	0.791	0.725
x2 = 0.002537, x1 = 0.0007185	1.057	0.946	0.851	0.773	0.706
x2 = 0.002557, x1 = 0.001436	1.082	0.968	0.874	0.796	0.729
